Starred links: 1 amine or outer side, 2 acyl side, 3 side chain; linkers in the order of their positions; H or OH if unused. Non-standard residues stand in square brackets, D forms with d. Residues, ends and D or L forms follow the SMILES beside them. *: point of attachment. Dolaproine = CO[C@@H]([C@@H]1CCCN1)[C@@H](C)C(=O)O; Dil = CC[C@H](C)[C@H](NC)[C@@H](CC(=O)O)OC; PABC = O=C(OCc1ccc(N[*:1])cc1)[*:2]; X1 = O=C(CCCC(=O)*)ON1C(=O)CCC1=O; X2 = C[C@@H](N*)[C@@H](O)c1ccccc1; Cit = NC(=O)NCCC[C@H](N)C(=O)O; NMeV = CN[C@H](C(=O)O)C(C)C
Experiments:
[1] = test system: CTG-0178; experiment: Champions TumorGraft NSCLC PDX efficacy, model CTG-0178; assay type: in vivo, Mus musculus
Protocol: (§1) Mice were implanted subcutaneously into the left flank with tumor fragments from one of the various models. After tumors grew to an average of 150-300 mm^3, mice were treated by IV administration Q7Dx4 (n=2) with vehicle or 3 mg/kg of BT5528. Effects on tumor growth were evaluated by measuring percent tumor growth inhibition (% TGI), and the number of complete responders (CR), partial responders (PR), and tumor-free survivors (TFS). Tolerability was assessed by body weight loss, lethality, and clinical signs of adverse treatment-related side effects. Tumor volumes and body weights were measured twice a week.
(§2) Dosing solutions of BT5528 […] were pre-formulated. These dosing solutions were stored at −80° C. in the dark. On each day of dosing, a frozen aliquot of each test agent was thawed, stored at 2-8° C. and used for dosing.
(§3) The animals used in this study are described below: • Species: Mus musculus • Strain: Athymic Nude-Foxn1^nu (immune-compromised) • Source: Envigo (Indianapolis, Ind., USA) • Number of animals per group: 2 • Age and sex: At least 6-8 weeks of age at start of dosing, female • Weight: At least 18 grams at start of dosing • Acclimation period: 3 days
(§4) Stock mice were implanted with tumor cells from Champions TumorGraft® models CTG-0160, CTG-0170, CTG-0178, CTG-0192, CTG-0363, CTG-0808, CTG-0838, CTG-0848, CTG-1212, CTG-1502, CTG-1535, CTG-2011, CTG-2393, CTG-2539 or CTG-2540. After the tumors reached 1000-1500 mm^3, they were harvested and the tumor fragments (approximately 5×5×5 mm^3) were implanted SC in the left flank of the female study mice. Each animal was implanted with a specific passage lot and documented. Tumor growth was monitored twice a week using digital calipers and the tumor volume (TV) was calculated using the formula (0.52×[length×width^2]). When the TV reached an average volume of 150-300 mm^3, animals were matched by tumor size and assigned into Vehicle Control and treatment groups (n=2/group) and dosing was initiated on Day 0. After the initiation of dosing on Day 0, animals were weighed twice per week using a digital scale and TV was measured twice per week and also on the final day of study. The study was completed when the mean tumor volume of Vehicle Control reached 1500 mm^3 or up to Day 60, whichever occurred first.
(§5) Beginning on Day 0, animals were observed daily and weighed twice weekly using a digital scale; data including individual and mean gram weights, mean percent weight change versus Day 0 (% vD0) were recorded for each group and % vD0 plotted at study completion. […] Treatment resulting in a mean % vD0>20% and/or >10% mortality was considered above the maximum tolerated dose. Maximum mean % vD0 (weight nadir) for each treatment group was reported at study completion.
(§6) Inhibition of tumor growth was determined by calculating the percent TGI (100%×[1−(final MTV−initial MTV of a treated group)/(final MTV−initial MTV of the control group)]). Treatment started on Day 0.
(§7) Additional endpoints used to evaluate efficacy were: the number of complete responders (CR), partial responders (PR), and tumor-free survivors (TFS). PRs were considered exclusive of CRs, as were TFS.
(§8) Statistical analyses of anti-tumor efficacy were performed using one-way ANOVA followed by Dunnett's multiple comparisons test (GraphPad Prism version 8.2.0). Significant p-values=<0.05.
Animals were dosed according to the schedule on Table 7-1. The study was terminated on Day 28.

[2] = test system: CTG-0838; experiment: Champions TumorGraft NSCLC PDX efficacy, model CTG-0838; assay type: in vivo, Mus musculus
Protocol: as §1, §2, §3, §4, §5, §6, §7, §8
Animals were dosed according to the schedule on Table 7-1. The study was terminated on Day 27.

[3] = test system: Panc163; experiment: PDAC PDX Panc163 xenograft efficacy (Example 5); assay type: in vivo, NSG mice; settings: 3 mg/kg intravenously weekly, 4-week treatment period
Protocol: BT5528 and Vehicle were prepared as described in the examples above, and tested in treatment of Pancreatic Ductal Adenocarcinoma (PDAC) in PDX models. PDX models effectively capture patient responses to oncology therapy in a heterogeneous cohort of patients with solid tumors with 80-100% correlation between the PDX and patient response (Izumchenko et al. 2017)
Pancreatic ductal adenocarcinoma patient derived xenograft tumors (PDAC PDX; Panc033 and Panc163) were implanted subcutaneously from source tumors into the flank of NSG mice. Tumor bearing animals were randomized to receive intravenously a weekly dosing of vehicle or 3 mg/kg BT5528. Tumor sizes were monitored by caliper measurements.

[4] = test system: CTG-2011; experiment: Champions TumorGraft NSCLC PDX efficacy, model CTG-2011; assay type: in vivo, Mus musculus
Protocol: as §1, §2, §3, §4, §5, §6, §7, §8
Animals were dosed according to the schedule on Table 7-1. The Vehicle Control reached endpoint on Day 18 and the study was terminated on Day 28.

[5] = CTG-0178, 3 mg/kg IV Q7Dx4, Day 0-28
[6] = CTG-0838, 3 mg/kg IV Q7Dx4, Day 0-27
[7] = CTG-2011, 3 mg/kg IV Q7Dx4, Day 0-28

In the case of `CC[C@H](C)[C@@H]([C@@H](CC(=O)N1CCC[C@H]1[C@H](OC)[C@@H](C)C(=O)N[C@H](C)[C@@H](O)c1ccccc1)OC)N(C)C(=O)[C@@H](NC(=O)[C@H](C(C)C)N(C)C(=O)OCc1ccc(NC(=O)[C@H](CCCNC(N)=O)NC(=O)[C@@H](NC(=O)CCCC(=O)ON2C(=O)CCC2=O)C(C)C)cc1)C(C)C` [BT5528] (X1-V[Cit][PABC][NMeV]V[Dil][Dolaproine]-X2), the “mean body weight loss” value ([1]; 3 mg/kg IV Q7Dx4) is reported as “minor mean body weight losses on Day 18”, the “MTV (mean tumor volume)” value ([1]; 3 mg/kg IV Q7Dx4, Day 28) is reported as 1145±271 mm^3 and the TGI ([1]; 3 mg/kg IV Q7Dx4, Day 28) is reported as 16%. For the same molecule, the “# CR (complete responders)” value [1, 5] was 0/0/0, the “# PR (partial responders)” value [1, 5] was 0/0/0 and the “# TFS (tumor-free survivors)” value [1, 5] was 0/0/0. The “% TGI” value ([1]; CTG-0178, 3 mg/kg IV Q7Dx4, Day 28) was 16%, the “Day 28 Tumor Volume Mean TV ± SEM” value ([1]; CTG-0178, BT5528 3 mg/kg IV Q7Dx4, Day 28, n=2) was 1145 ± 271 mm^3 and the “mean body weight loss” value ([2]; 3 mg/kg IV Q7Dx4) was “no mean body weight loss”. For the same molecule, the “MTV (mean tumor volume)” value ([2]; 3 mg/kg IV Q7Dx4, Day 27) was 269±128 mm^3, the TGI ([2]; 3 mg/kg IV Q7Dx4, Day 27) was 97% and the “# CR (complete responders)” value [2, 6] was 0/0/0. The “# PR (partial responders)” value [2, 6] was 0/0/0, the “# TFS (tumor-free survivors)” value [2, 6] was 0/0/0 and the “% TGI” value ([2]; CTG-0838, 3 mg/kg IV Q7Dx4, Day 27) was 97%. For the same molecule, the “Day 27 Tumor Volume Mean TV ± SEM” value ([2]; CTG-0838, BT5528 3 mg/kg IV Q7Dx4, Day 27, n=2) was 269 ± 128 mm^3, the “anti-tumor activity (tumor size by caliper)” value [3] was “significant anti-tumor activity from reduced tumor growth rate to decreasing tumor volumes” and the “MTV (mean tumor volume)” value ([4]; 3 mg/kg IV Q7Dx4, Day 18) was 826±48 mm^3. The TGI ([4]; 3 mg/kg IV Q7Dx4, Day 18) was 57%, the “# CR (complete responders)” value [4, 7] was 0 /0/0 and the “# PR (partial responders)” value [4, 7] was 0 /0/0. The “# TFS (tumor-free survivors)” value [4, 7] was 0 /0/0, the “% TGI” value ([4]; CTG-2011, 3 mg/kg IV Q7Dx4, Day 18) was 57% and the “Day 18 Tumor Volume Mean TV ± SEM” value ([4]; CTG-2011, BT5528 3 mg/kg IV Q7Dx4, Day 18, n=2) was 826 ± 48 mm^3.

Source: patent publication US20220184222A1, “BICYCLE TOXIN CONJUGATES AND USES THEREOF” (BicycleTx Limited, priority 2019, published 2022)
